Source: US10786521B2, “Methods and compositions for treatment of COPD diseases” (Shanghai KE Pharmaceutical Co., LTD, priority 2014, dated 2020)

Tested on: airway smooth muscle (bronchial rings)
Experiment: Relaxation of evoked isometric force of bronchial rings (wire myograph)
Format: cell-based, mice
Procedure: Briefly, the entire respiratory tree was rapidly removed and immersed in Krebs-Henseleit buffer (118.1 mM NaCl, 4.7 mM KCl, 1.2 mM MgSO4, 2.5 mM CaCl2, 1.0 mM NaH2PO4, 25 mM NaHCO3 and 11.1 mM glucose, pH 7.4). Bronchial rings, 2 mm in length, were isolated from pulmonary bronchi using a dissection microscope. Then the bronchial segments were mounted in a small-vessel wire myograph chamber (Danish Myo Technology, Aarhus, Denmark) by threading on two steel wires (40 μm in diameter) secured to two supports. One support was attached to a force transducer for measurements of isometric force development, and the other was attached to a micrometer controlling ring circumference. The preparation was kept in the chamber, immersed in 5 ml of Krebs-Henseleit solution, bubbled with 5% CO2 and 95% O2 and maintained at 37° C. The initial isometric tension of bronchial ring was set to 0 mN prior to equilibration for 20 min. The bronchial ring was then stretched in order to keep the force at 5 mN followed by an additional equilibration for 20 min. The isometric forces produced by bronchial ring was recorded with a data acquisition and analysis program (Danish Myo Technology, Aarhus, Denmark).
The robust relaxation effect and low risk of toxicity of KE on airway smooth muscle indicates its promising prospects for development. To identify the active ingredients of KE, the KE was divided into three parts including EtOAc phase, n-BuOH phase and water phase using EtOAc and n-BuOH sequential extraction. Upon the airway smooth muscle rings reached a relative steady contraction state evoked by MCh, accumulated volume of these three phases was added to assess the relaxation capacity. […] On the other hand, 1 μL of EtOAc phase just relaxed the rings to 90%.
Their dose-responsive effect on relaxation of airway smooth muscle was measured. When the force evoked by acetylcholine reached a relatively steady state, kudinosides were added to the bath in cumulative concentrations (0.1 μM, 0.3 μM, 1 μM, 3 μM, 10 μM, 30 μM). […] When the concentration of kudinoside D increased to 10 μM, about 50% of the force was relaxed. Strikingly, upon treatment with 30 μM of kudinoside D, more than 80% of the force was relaxed (FIG. 5B). Similarly, 30 μM of kudinoside A also led to 80% inhibition of evoked force. Note that the relaxation effect of kudinosides was completely reversible, because the relaxed muscles restored response to MCh after washing off.

## C[C@@H]1O[C@@H](O[C@H]2[C@H](O[C@H]3CC[C@@]4(C)C(CC[C@]5(C)C4C=CC4=C6[C@]7(CC[C@](C)(OC7=O)[C@@]6(C)O)CC[C@]45C)C3(C)C)OC[C@H](O)[C@@H]2O[C@@H]2O[C@H](CO)[C@@H](O)[C@H](O)[C@H]2O)[C@H](O)[C@H](O)[C@H]1O (stereo partly drawn) [Kudinoside D]
Force evoked by acetylcholine, cumulative concentrations, 10 μM
  force relaxed at 10 μM: about 50%
Force evoked by acetylcholine, cumulative concentrations, 30 μM
  force relaxed / inhibition of evoked force at 30 μM: more than 80%
In vitro, concentration not given
  relaxation of evoked force of airway smooth muscle / bronchial rings: significantly relaxed bronchial rings in a dose-dependent manner
